Patent publication US8455475B2 (Gruenenthal GmbH, priority 2009, dated 2013)

Biological target: T1, rat B1R (bradykinin receptor 1) (Rattus norvegicus, UniProt P97583)
T1 construct: expressed in transfected cells; host or cells: CHO K1 cells
T1 sequence (P97583 1-337): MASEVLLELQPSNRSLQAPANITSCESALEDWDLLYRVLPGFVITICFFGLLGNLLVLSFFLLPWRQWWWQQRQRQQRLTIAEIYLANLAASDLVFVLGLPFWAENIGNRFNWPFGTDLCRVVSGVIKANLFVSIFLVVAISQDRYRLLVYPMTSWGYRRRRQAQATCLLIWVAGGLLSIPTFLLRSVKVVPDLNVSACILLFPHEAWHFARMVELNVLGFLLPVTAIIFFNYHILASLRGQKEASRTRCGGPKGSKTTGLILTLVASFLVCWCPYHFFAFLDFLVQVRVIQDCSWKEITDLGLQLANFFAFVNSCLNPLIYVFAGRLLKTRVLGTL
Assay: FLIPR Ca2+ assay (Fluo-4) on CHO K1 cells stably transfected with the B1R gene of the rat (rB1R cells): % inhibition at 10 μM / IC50, agonist Des-Arg9-bradykinin
Format: cell-based
Settings: CHO-K1, rat B1R
How it was run: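 Using a two-addition FLIPR protocol, compound (10 μM for % values; concentration series for IC50) was preincubated 10–20 min with Fluo-4-loaded B1R-expressing CHO K1 cells before EC80 agonist challenge. Suppression of Ca2+ inflow, read as peak fluorescence, is expressed relative to maximum achievable inhibition; duplicate/triplicate, ≥2 independent experiments.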

Row | inhibition at 10 µM | SMILES
1 | 91% | O=C(NC1CCc2ccc(C(=O)N3CCC4(CCN(Cc5csnn5)CC4)C3)cc21)c1ccccc1Cl (centres unmarked) [IND_CC-555, 2-Chloro-N-[6-[8-([1,2,3]thiadiazol-4-yl-methyl)-2,8-diazaspiro[4.5]decane-2-carbonyl]-2,3-dihydro-1H-inden-1-yl]-benzamide]
2 | 103% | O=C(NC1CCc2ccc(C(=O)N3CCC4(CCN(Cc5c(F)cccc5Cl)CC4)C3)cc21)c1ccccc1Cl (centres unmarked) [IND_CC-557, 2-Chloro-N-[6-[8-[(2-chloro-6-fluoro-phenyl)-methyl]-2,8-diazaspiro[4.5]decane-2-carbonyl]-2,3-dihydro-1H-inden-1-yl]-benzamide]
3 | 62% | CN(C(=O)c1ccccc1Cl)C1CCc2ccc(C(=O)N3CCC4(CCN(Cc5c(F)cccc5Cl)CC4)C3)cc21 (centres unmarked) [IND_CC-558, 2-Chloro-N-[6-[8-[(2-chloro-6-fluoro-phenyl)-methyl]-2,8-diazaspiro[4.5]-decane-2-carbonyl]-2,3-dihydro-1H-inden-1-yl]-N-methyl-benzamide]
4 | 56% | Cc1c(CN2CCC3(CC2)CCN(C(=O)c2ccc4c(c2)C(NC(=O)c2ccccc2Cl)CC4)C3)cnn1C (centres unmarked) [IND_CC-559, 2-Chloro-N-[6-[8-[(1,5-dimethyl-1H-pyrazol-4-yl)-methyl]-2,8-diazaspiro[4.5]decane-2-carbonyl]-2,3-dihydro-1H-inden-1-yl]-benzamide]
5 | 95% | Cc1noc(C)c1CN1CCC2(CC1)CCN(C(=O)c1ccc3c(c1)C(NC(=O)c1ccccc1Cl)CC3)C2 (centres unmarked) [IND_CC-560, 2-Chloro-N-[6-[8-[(3,5-dimethyl-isoxazol-4-yl)-methyl]-2,8-diazaspiro[4.5]decane-2-carbonyl]-2,3-dihydro-1H-inden-1-yl]-benzamide]
6 | 85% | N#Cc1ccc(CN2CCC3(CC2)CCN(C(=O)c2ccc4c(c2)C(NC(=O)c2ccccc2Cl)CC4)C3)cc1 (centres unmarked) [IND_CC-561, 2-Chloro-N-[6-[8-[(4-cyano-phenyl)-methyl]-2,8-diazaspiro[4.5]decane-2-carbonyl]-2,3-dihydro-1H-inden-1-yl]-benzamide]
7 | 92% | N#Cc1ccccc1CN1CCC2(CC1)CCN(C(=O)c1ccc3c(c1)C(NC(=O)c1ccccc1Cl)CC3)C2 (centres unmarked) [IND_CC-563, 2-Chloro-N-[6-[8-[(2-cyano-phenyl)-methyl]-2,8-diazaspiro[4.5]decane-2-carbonyl]-2,3-dihydro-1H-inden-1-yl]-benzamide]
8 | 81% | Cc1nn(C)c(C)c1CN1CCC2(CC1)CCN(C(=O)c1ccc3c(c1)C(NC(=O)c1ccccc1Cl)CC3)C2 (centres unmarked) [IND_CC-564, 2-Chloro-N-[6-[8-[(1,3,5-trimethyl-1H-pyrazol-4-yl)-methyl]-2,8-diazaspiro[4.5]decane-2-carbonyl]-2,3-dihydro-1H-inden-1-yl]-benzamide]
9 | 68% | CCn1cc(CN2CCC3(CC2)CCN(C(=O)c2ccc4c(c2)C(NC(=O)c2ccccc2Cl)CC4)C3)c(C)n1 (centres unmarked) [IND_CC-565, 2-Chloro-N-[6-[8-[(1-ethyl-3-methyl-1H-pyrazol-4-yl)-methyl]-2,8-diazaspiro[4.5]decane-2-carbonyl]-2,3-dihydro-1H-inden-1-yl]-benzamide]
10 | 90% | CN(C)c1ncc(CN2CCC3(CC2)CCN(C(=O)c2ccc4c(c2)C(NC(=O)c2ccccc2Cl)CC4)C3)cn1 (centres unmarked) [IND_CC-566, 2-Chloro-N-[6-[8-[(2-dimethylamino-pyrimidin-5-yl)-methyl]-2,8-diazaspiro[4.5]decane-2-carbonyl]-2,3-dihydro-1H-inden-1-yl]-benzamide]
11 | 100% | O=C(NC1CCc2ccc(C(=O)N3CCC4(CCN(Cc5ccc6ncccc6c5)CC4)C3)cc21)c1ccccc1Cl (centres unmarked) [IND_CC-567, 2-Chloro-N-[6-[8-(quinolin-6-yl-methyl)-2,8-diazaspiro[4.5]decane-2-carbonyl]-2,3-dihydro-1H-inden-1-yl]-benzamide]
12 | 52% | N#Cc1ccc(CN2CCC3(CC2)CCN(C(=O)c2ccc4c(c2)C(NC(=O)c2sccc2Cl)CC4)C3)cc1 (centres unmarked) [IND_CC-569, 3-Chloro-N-[6-[8-[(4-cyano-phenyl)-methyl]-2,8-diazaspiro[4.5]decane-2-carbonyl]-2,3-dihydro-1H-inden-1-yl]-thiophene-2-carboxylic acid amide]
13 | 57% | O=C(NC1CCc2ccc(C(=O)N3CCC4(CCN(Cc5ccc6ncccc6c5)CC4)C3)cc21)c1sccc1Cl (centres unmarked) [IND_CC-570, 3-Chloro-N-[6-[8-(quinolin-6-yl-methyl)-2,8-diazaspiro[4.5]decane-2-carbonyl]-2,3-dihydro-1H-inden-1-yl]-thiophene-2-carboxylic acid amide]
14 | 52% | O=C(NC1CCc2ccc(C(=O)N3CCC4(CCN(Cc5ccc6nccnc6c5)CC4)C3)cc21)c1sccc1Cl (centres unmarked) [IND_CC-571, 3-Chloro-N-[6-[8-(quinoxalin-6-yl-methyl)-2,8-diazaspiro[4.5]decane-2-carbonyl]-2,3-dihydro-1H-inden-1-yl]-thiophene-2-carboxylic acid amide]
15 | 80% | CN(C(=O)c1ccccc1Cl)C1CCc2ccc(C(=O)N3CCC4(CCN(Cc5cccc(C#N)c5)CC4)C3)cc21 (centres unmarked) [IND_CC-572, 2-Chloro-N-[6-[8-[(3-cyano-phenyl)-methyl]-2,8-diazaspiro[4.5]decane-2-carbonyl]-2,3-dihydro-1H-inden-1-yl]-N-methyl-benzamide]
16 | 78% | O=C(NC1CCc2ccc(C(=O)N3CCC4(CCN(C(=O)c5ccc(F)cc5Cl)CC4)C3)cc21)c1ccccc1Cl (centres unmarked) [IND_CC-575, 2-Chloro-N-[6-[8-(2-chloro-4-fluoro-benzoyl)-2,8-diazaspiro[4.5]decane-2-carbonyl]-2,3-dihydro-1H-inden-1-yl]-benzamide]
17 | 79% | O=C(NC1CCc2ccc(C(=O)N3CCC4(CCN(C(=O)c5ccc(F)cc5F)CC4)C3)cc21)c1ccccc1Cl (centres unmarked) [IND_CC-576, 2-Chloro-N-[6-[8-(2,4-difluoro-benzoyl)-2,8-diazaspiro[4.5]decane-2-carbonyl]-2,3-dihydro-1H-inden-1-yl]-benzamide]
18 | 79% | Cn1nc(C(C)(C)C)cc1C(=O)N1CCC2(CCN(C(=O)c3ccc4c(c3)C(NC(=O)c3ccccc3Cl)CC4)C2)CC1 (centres unmarked) [IND_CC-578, N-[6-[8-(5-tert-Butyl-2-methyl-2H-pyrazole-3-carbonyl)-2,8-diazaspiro-[4.5]decane-2-carbonyl]-2,3-dihydro-1H-inden-1-yl]-2-chloro-benzamide]
19 | 57% | Cc1cc(C(=O)N2CCC3(CCN(C(=O)c4ccc5c(c4)C(NC(=O)c4ccccc4Cl)CC5)C3)CC2)n(C(C)(C)C)n1 (centres unmarked) [IND_CC-579, N-[6-[8-(2-tert-Butyl-5-methyl-2H-pyrazole-3-carbonyl)-2,8-diazaspiro-[4.5]decane-2-carbonyl]-2,3-dihydro-1H-inden-1-yl]-2-chloro-benzamide]
20 | 81% | COc1cc(C)c(C(=O)NC2CCc3ccc(C(=O)N4CCC5(CCN(C(=O)c6cc(C(C)(C)C)nn6C)CC5)C4)cc32)c(C)c1 (centres unmarked) [IND_CC-580, N-[6-[8-(5-tert-Butyl-2-methyl-2H-pyrazole-3-carbonyl)-2,8-diazaspiro[4.5]decane-2-carbonyl]-2,3-dihydro-1H-inden-1-yl]-4-methoxy-2,6-dimethyl-benzamide]
21 | 67% | COc1cc(C)c(C(=O)NC2CCc3ccc(C(=O)N4CCC5(CCN(C(=O)c6cc(C)nn6C(C)(C)C)CC5)C4)cc32)c(C)c1 (centres unmarked) [IND_CC-581, N-[6-[8-(2-tert-Butyl-5-methyl-2H-pyrazole-3-carbonyl)-2,8-diazaspiro[4.5]decane-2-carbonyl]-2,3-dihydro-1H-inden-1-yl]-4-methoxy-2,6-dimethyl-benzamide]
22 | 58% | O=C(NC1CCc2ccc(C(=O)N3CCC4(CCN(C(=O)C5CC5)CC4)C3)cc21)c1sccc1Cl (centres unmarked) [IND_CC-582, 3-Chloro-N-[6-[8-(cyclopropanecarbonyl)-2,8-diazaspiro[4.5]decane-2-carbonyl]-2,3-dihydro-1H-inden-1-yl]-thiophene-2-carboxylic acid amide]
23 | 75% | CC(C)(C)CC(=O)N1CCC2(CC1)CCN(C(=O)c1ccc3c(c1)C(NC(=O)c1sccc1Cl)CC3)C2 (centres unmarked) [IND_CC-583, 3-Chloro-N-[6-[8-(3,3-dimethyl-butanoyl)-2,8-diazaspiro[4.5]decane-2-carbonyl]-2,3-dihydro-1H-inden-1-yl]-thiophene-2-carboxylic acid amide]
24 | 63% | O=C(NC1CCc2ccc(C(=O)N3CCC4(CCN(C(=O)c5ccc(F)cc5Cl)CC4)C3)cc21)c1sccc1Cl (centres unmarked) [IND_CC-584, 3-Chloro-N-[6-[8-(2-chloro-4-fluoro-benzoyl)-2,8-diazaspiro[4.5]decane-2-carbonyl]-2,3-dihydro-1H-inden-1-yl]-thiophene-2-carboxylic acid amide]
25 | 52% | O=C(NC1CCc2ccc(C(=O)N3CCC4(CCN(C(=O)c5ccc(F)cc5F)CC4)C3)cc21)c1sccc1Cl (centres unmarked) [IND_CC-585, 3-Chloro-N-[6-[8-(2,4-difluoro-benzoyl)-2,8-diazaspiro[4.5]decane-2-carbonyl]-2,3-dihydro-1H-inden-1-yl]-thiophene-2-carboxylic acid amide]
26 | 76% | O=C(NC1CCc2ccc(C(=O)N3CCC4(CCN(C(=O)Cc5ccc(Cl)cc5)CC4)C3)cc21)c1sccc1Cl (centres unmarked) [IND_CC-586, 3-Chloro-N-[6-[8-[2-(4-chlorophenyl)-acetyl]-2,8-diazaspiro[4.5]decane-2-carbonyl]-2,3-dihydro-1H-inden-1-yl]-thiophene-2-carboxylic acid amide]
